From patent publication US11254657B2, “Plinabulin compositions” (priority 2015, dated 2022) come the findings set out here.

SMILES strings stand for the structures. “Also recorded” adds a separate entry of the source. Where two headings read alike, the source gives them in different places. A value given as a limit tells only on which side of the number the result lay.

Format in all cases: physicochemical
Data set [1] is described as follows: Dissolution in kolliphor (40% wt) and propylene glycol (60% wt). The note with it: mixture of kolliphor (40% wt) and propylene glycol (60% wt). The protocol: A batch of plinabulin having a KF analysis of about 3.1% for water content was added to a mixture of kolliphor (40% wt) and propylene glycol (60% wt). […] The batch was reprocessed according to the steps described in FIG. 29 to form the plinabulin monohydrate (Form 1).

Data set [2] can be described thus: Dynamic Vapor Sorption (DVS) test. The procedure: The DSC data were collected using a TA Instruments Q10 DSC. Typically, samples (˜2 mg) were placed in hermetic alodined aluminum sample pans and scanned from 30 to 300° C. at a rate of 10° C./min under a nitrogen purge of 50 mL/min. The TGA data were collected using a TA Instruments TGA Q500. Typically, samples (˜10 mg) were placed in an open, pre-tared aluminum sample pan and scanned from 30 to 300° C. at a rate of 10° C./min using a nitrogen purge at 60 mL/min. The X-ray powder diffraction patterns were obtained using a Bruker D8 Advance equipped with a Cu Ku radiation source ([…]), a 9-position sample holder and a LYNXEYE Super Speed Detector. Typically, the duration of each scan was 180 seconds and the 2θ range was 4 to 40°. Samples were placed on zero-background, silicon plate holders. Samples were analyzed using an Aquadyne DVS-2 gravimetric water sorption analyzer. The relative humidity was adjusted between 2-95% and the weight of sample was continuously monitored and recorded.
A DVS experiment was run on the plinabulin monohydrate (Form 1). The sample gained ˜0.1% mass at 95% RH which was lost on drying to 0% RH without hysteresis. […] The XRPD pattern of the pre-DVS sample (Form 1 plinabulin monohydrate) overlays with the XRPD patterns of the post-DVS sample (Form 1 plinabulin monohydrate).

A short description of data set [3]: Gravimetric solubility measurement in solvents. The note with it: for solubility at 3 days: thermodynamic from solid, slurried 3 days. The protocol:
A plinabulin compound was slurried in 15 different solvents/solvent mixtures as shown in Table 9 at 15° C. and 45° C. for 3 days for gravimetric solubility measurement. About 70 mg of solid was added to a vial for each experiment followed by addition of 0.7 mL of the respective solvents. Next, the slurry was centrifuged and the supernatant was added to pre-weighed vials and evaporated to dryness under vacuum. The vials with remaining solids were weighed again to calculate the solubility. […]

A short description of data set [4]: Drying study in vacuum oven at 50° C. Conditions: overnight and over the weekend. The procedure: A sample of plinabulin monohydrate (Form 1) was placed in a vacuum oven at 50° C. overnight and over the weekend.
A short description of data set [5]: High humidity exposure stability. The note with it: >95% RH for 13 days. The source says: Form 1 was also stable under various humidity conditions. On the other hand, the crystalline forms converted to Form I monohydrate when exposed to moisture.
Data set [6] in a line: Karl Fischer moisture level on extended drying and humid exposure. The procedure: Analysis by KF after drying at 45° C. under vacuum for an additional 70 hours indicated the moisture level had decreased to 4.1%. […] This sample was placed in a glove bag in an open container with an open container of water and the moisture level monitored. After 4 hours the moisture level was measured as 5.0%. After 18.5 hours the moisture level was measured as 4.8% and after 51 hours the KF result was 4.9%.
A sample of plinabulin compound (4.92 g) was stirred in ethanol (147.6 g) and heated to reflux (fully soluble at 75° C.). The solution was then allowed to cool and monitored for precipitation. A precipitate was observed when the solution was at 48° C. The mixture was re-heated to reflux providing a clear yellow solution. To the hot solution was added 295 g of water (approximately twice the mass of ethanol) allowing the mixture to cool during the addition. A precipitate was observed after charging approximately 150 mL of water with the temperature at 48° C. This solution was allowed to cool to room temperature. The solids were filtered and washed three times with 20 g of water. The solid was dried at 40-45° C. for 2.5 days to give 4.82 g, 98.0% recovery. […] Analysis by KF after drying at 45° C. under vacuum for an additional 70 hours indicated the moisture level had decreased to 4.4%. The XRPD of this sample indicates it was essentially unchanged, a mixture of Forms 1 and 3 with additional peaks (at around 12.26°, 15.19° and 28.79° 2θ degrees). This sample was placed in a glove bag in an open container with an open container of water and the moisture level monitored. After 4 hours the moisture level was measured as 5.0%. After 18.5 hours the moisture level was measured as 4.9% and after 51 hours the KF result was 5.1%.

Where [7] appears, read: listed as plinabulin monohydrate (Form 1).

With `CC(C)(C)c1[nH]cnc1/C=c1\[nH]c(=O)/c(=C/c2ccccc2)[nH]c1=O` [Form 3], in data set [1] (listed as anhydrous plinabulin (Form 3)), the “dissolution in diluent mixture” value is recorded as “insoluble particles”. In addition, the “post-DVS sample versus pre-DVS sample by XRPD” value in data set [2] is “differed from the pre-DVS sample”. Further, the “mass lost in DVS” value in data set [2] (at 90% RH) was “about 0.2%”.
In the case of `CC(C)(C)c1[nH]cnc1/C=c1\[nH]c(=O)/c(=C/c2ccccc2)[nH]c1=O` [plinabulin compound, (3Z,6Z)-3-Benzylidene-6-{[5-(2-methyl-2-propanyl)-1H-imidazol-4-yl]methylene}-2,5-piperazinedione], the “solubility (in words)” value in data set [3] (THF) is recorded as “highly soluble”.
Usually solubility stands for the dissolved amount per volume that the medium holds. Regarding `CC(C)(C)c1[nH]cnc1/C=c1\[nH]c(=O)/c(=C/c2ccccc2)[nH]c1=O` [plinabulin monohydrate, (3Z,6Z)-3-Benzylidene-6-{[5-(2-methyl-2-propanyl)-1H-imidazol-4-yl]methylene}-2,5-piperazinedione], in data set [4], the “change in weight during drying” value is given as “no change in weight”. The stability on drying result in data set [4] (setting [7]) was “stable to drying; also recorded: remained stable”. In addition, the solubility at 3 days is 3000 µg/mL in data set [3] (organic solvent or mixture, ACN, 15° C., read-out: Solubility at 15° C.); 7000 µg/mL in data set [3] (organic solvent or mixture, ACN, 45° C., read-out: Solubility at 45° C.); 6000 µg/mL in data set [3] (organic solvent or mixture, Acetone:water (95:5), 15° C., read-out: Solubility at 15° C.); 16000 µg/mL in data set [3] (organic solvent or mixture, Acetone:water (95:5), 45° C., read-out: Solubility at 45° C.); 11000 µg/mL in data set [3] (organic solvent or mixture, Acetone, 15° C., read-out: Solubility at 15° C.); 20000 µg/mL in data set [3] (organic solvent or mixture, Acetone, 45° C., read-out: Solubility at 45° C.). In addition, the solubility at 3 days in data set [3] (organic solvent or mixture, DCM, 15° C., read-out: Solubility at 15° C.) turned out to be 2000 µg/mL; in data set [3] (organic solvent or mixture, EtOAc, 15° C., read-out: Solubility at 15° C.), 3000 µg/mL; in data set [3] (organic solvent or mixture, EtOAc, 45° C., read-out: Solubility at 45° C.) it was 8000 µg/mL; in data set [3] (organic solvent or mixture, EtOH:water (95:5), 15° C., read-out: Solubility at 15° C.), 4000 µg/mL; in data set [3] (organic solvent or mixture, EtOH:water (95:5), 45° C., read-out: Solubility at 45° C.), 13000 µg/mL; in data set [3] (organic solvent or mixture, EtOH, 15° C., read-out: Solubility at 15° C.), 5000 µg/mL. The solubility at 3 days is 13000 µg/mL in data set [3] (organic solvent or mixture, EtOH, 45° C., read-out: Solubility at 45° C.); less than 1000 µg/mL in data set [3] (organic solvent or mixture, Heptane, 15° C., read-out: Solubility at 15° C.); 3000 µg/mL in data set [3] (organic solvent or mixture, Heptane, 45° C., read-out: Solubility at 45° C.); 1000 µg/mL in data set [3] (organic solvent or mixture, IPA, 15° C., read-out: Solubility at 15° C.); 7000 µg/mL in data set [3] (organic solvent or mixture, IPA, 45° C., read-out: Solubility at 45° C.); 11000 µg/mL in data set [3] (organic solvent or mixture, MEK, 15° C., read-out: Solubility at 15° C.). Also, the solubility at 3 days in data set [3] (organic solvent or mixture, MEK, 45° C., read-out: Solubility at 45° C.) is 23000 µg/mL; in data set [3] (organic solvent or mixture, MTBE, 15° C., read-out: Solubility at 15° C.), less than 1000 µg/mL; in data set [3] (organic solvent or mixture, MTBE, 45° C., read-out: Solubility at 45° C.), 5000 µg/mL; in data set [3] (organic solvent or mixture, MeOH, 15° C., read-out: Solubility at 15° C.) it was 5000 µg/mL; in data set [3] (organic solvent or mixture, MeOH, 45° C., read-out: Solubility at 45° C.), 13000 µg/mL; in data set [3] (organic solvent or mixture, THF, 15° C., read-out: Solubility at 15° C.), 40000 µg/mL. For the same compound, the solubility at 3 days in data set [3] (organic solvent or mixture, THF, 45° C., read-out: Solubility at 45° C.) was 96000 µg/mL; in data set [3] (organic solvent or mixture, Toluene, 15° C., read-out: Solubility at 15° C.), 1000 µg/mL; in data set [3] (organic solvent or mixture, Toluene, 45° C., read-out: Solubility at 45° C.), 7000 µg/mL; in data set [3] (Water, 15° C., read-out: Solubility at 15° C.), less than 1000 µg/mL; in data set [3] (Water, 45° C., read-out: Solubility at 45° C.), less than 1000 µg/mL. Besides, the “dissolution in diluent mixture” value in data set [1] (setting [7]) is “dissolved completely”. Moreover, the “stability in high humidity environment” value was “no change in solid form” in data set [5] (listed as form 1) and “no change in solid form; also recorded: remained stable with no change in mass” in data set [5] (setting [7]). Further, the “stability during the DVS and drying tests (in words)” value in data set [2] is reported as “remained stable”. Further, the “mass gained in DVS” value in data set [2] (at 95% RH) is reported as approximately 0.1%. Further, the “post-DVS sample versus pre-DVS sample by XRPD” value in data set [2] (setting [7]) is on record as “no transformation had taken place”. Besides, the “moisture level (KF)” value was found to be 4.1% in data set [6] (after drying at 45° C. under vacuum for an additional 70 hours); 5.0% in data set [6] (dried sample in glove bag with open container of water, after 4 hours); 4.8% in data set [6] (dried sample in glove bag with open container of water, after 18.5 hours); 4.9% in data set [6] (dried sample in glove bag with open container of water, after 51 hours).
